The values that follow are results of earlier work, collected in paper PMC7004556 (Cancer Science, 2020).

In one series the test system is FGFR pathway. Conditions: cited from earlier work.
The subject of the next series is patients. Conditions: phase I study, only at the highest dose investigated (12 mg); cited from earlier work.
In another series the test system is advanced gastric cancer. Particulars: advanced gastric cancer with FGFR2 polysomy or gene amplification; cited from earlier work.
Another series concerns advanced solid tumors. Conditions: Japanese patients with advanced solid tumors, duration ≥4 weeks; cited from earlier work.

On to `COc1cc(OC)cc(N(CCNC(C)C)c2ccc3ncc(-c4cnn(C)c4)nc3c2)c1` [JNJ‐42756493], for which the “Phosphate and 1,25‐(OH)2‐vitamin D” value in the series with FGFR pathway (studies in solid tumors) is given as “increased”. The DLT observed entry in the series with patients is “detachment of retinal pigment epithelium <grade 3 was the only DLT observed”.

On to AZD4547, for which the Serum phosphate result in the series on FGFR pathway is “increase”. Also, in the series on advanced gastric cancer, the “Effect on progression‐free survival compared with paclitaxel” value is reported as “no significant effect”. For the same molecule, the Best response entry in the series with advanced solid tumors was “stable disease”.
